Test: Compound 1 plasma concentration at trough (LC-MS) in piroxicam-accelerated MDR1a−/− colitis mice
Assay type: in vivo, mouse
Conditions: 90 mg/kg SC BID in 10% Cremophor-EL; trough blood after 3rd and 21st day of dosing; FIG. 1
Procedure: Compound 1 was dosed at 90 mg/kg in 10% Cremophor-EL, SC, BID. Vehicle was 10% Cremophor-EL and was administered SC, BID. Anti-mouse TNFα clone XT3.11 (Rat IgG1), 300 μg/mouse, QD/QOD; Isotype-matched control Clone HRPN (Rat IgG1), 300 μg/mouse, QD/QOD.
Blood was taken at trough from all Compound 1-dosed mice, and plasma analyzed by Liquid Chromatography-Mass Spectroscopy to determine Compound 1 concentration. Trough blood was taken after the 3rd day (left panel) and 21st day (right panel) of dosing (FIG. 1).

Structure (SMILES): CC(C)(C)c1ccc(S(=O)(=O)Nc2ccc(Cl)cc2C(=O)c2cc[n+]([O-])cc2)cc1 [Compound 1]
- Compound 1 plasma concentration at trough: met or exceeded the minimal concentration established for 98% receptor coverage
